Assay results from ChEMBL document CHEMBL4265965, “Dichloroacetophenones targeting at pyruvate dehydrogenase kinase 1 with improved selectivity and antiproliferative activity: Synthesis and structure-activity relationships” (Bioorg Med Chem Lett, 2018).
The source made the active and inactive calls. No cut-off for these calls is given here.

Tests used:
NCI-H1650 [1] = experiment: Antiproliferative activity against human NCI-H1650 cells assessed as inhibition of cell proliferation at 12 uM after 72 hrs by MTT assay relative to control; type: functional; conditions: NCI-H1650, 72 h
NCI-H1650 [2] = experiment: Antiproliferative activity against human NCI-H1650 cells assessed as inhibition of cell proliferation at 2 uM after 72 hrs by MTT assay relative to control; type: functional; conditions: for inhibition at 2 µM: NCI-H1650, 72 h
NCI-H1650 [3] = experiment: Antiproliferative activity against human NCI-H1650 cells assessed as inhibition of cell proliferation at 6 uM after 72 hrs by MTT assay relative to control; type: functional; conditions: for inhibition at 6 µM: NCI-H1650, 72 h
[4] = target: [Pyruvate dehydrogenase (acetyl-transferring)] kinase isozyme 1, mitochondrial (Homo sapiens, UniProt Q15118); experiment: Inhibition of recombinant human N-terminal His6/Sumo-tagged PDK1 (29 to 436 residues) expressed in Escherichia coli BL21 at 1 uM by kinase-glo luminescence assay relative to control
NCI-H1975 [5] = experiment: Antiproliferative activity against human NCI-H1975 cells assessed as inhibition of cell proliferation at 6 uM after 72 hrs by MTT assay relative to control; type: functional; conditions: for inhibition at 6 µM: NCI-H1975, 72 h
A549 [6] = experiment: Antiproliferative activity against human A549 cells assessed as inhibition of cell proliferation at 12 uM after 72 hrs by MTT assay relative to control; type: functional; conditions: A549, 72 h
A549 [7] = experiment: Antiproliferative activity against human A549 cells assessed as inhibition of cell proliferation at 6 uM after 72 hrs by MTT assay relative to control; type: functional; conditions: for inhibition at 6 µM: A549, 72 h
A549 [8] = experiment: Antiproliferative activity against human A549 cells assessed as inhibition of cell proliferation at 2 uM after 72 hrs by MTT assay relative to control; type: functional; conditions: for inhibition at 2 µM: A549, 72 h
NCI-H1975 [9] = experiment: Antiproliferative activity against human NCI-H1975 cells assessed as inhibition of cell proliferation at 12 uM after 72 hrs by MTT assay relative to control; type: functional; conditions: NCI-H1975, 72 h
NCI-H1975 [10] = experiment: Antiproliferative activity against human NCI-H1975 cells assessed as inhibition of cell proliferation at 2 uM after 72 hrs by MTT assay relative to control; type: functional; conditions: for inhibition at 2 µM: NCI-H1975, 72 h

Row | SMILES | inhibition at 12 µM (NCI-H1650 [1]) [%] | inhibition at 2 µM (NCI-H1650 [2]) [%] | inhibition at 6 µM (NCI-H1650 [3]) [%] | inhibition [4] | inhibition at 6 µM (NCI-H1975 [5]) [%] | inhibition at 12 µM (A549 [6]) [%] | inhibition at 6 µM (A549 [7]) [%] | inhibition (A549 [8]) | inhibition at 12 µM (NCI-H1975 [9]) [%] | inhibition at 2 µM (NCI-H1975 [10]) [%] | inhibition (NCI-H1650 [2]) | inhibition at 2 µM (A549 [8]) [%] | inhibition (NCI-H1975 [10]) | inhibition (NCI-H1650 [3]) | inhibition (NCI-H1975 [5]) | inhibition (A549 [7])
1 | Cc1ccc(C(=O)C(Cl)Cl)cc1 | 78.4 | 31.2 | 54.3 | 19.7% | 83.1 | 80 | 33.2 | inactive | 95.7 | 28.6 | – | – | – | – | – | –
2 | O=C(c1ccccc1[N+](=O)[O-])C(Cl)Cl | 49.9 | – | 22.4 | inactive | 61.5 | 6.1 | 4.4 | – | 93.7 | 4.8 | inactive | 1.9 | – | – | – | –
3 | Cc1cccc(C(=O)C(Cl)Cl)c1 | 96.8 | 33.3 | 79.9 | – | 97.3 | 91.3 | 65.6 | – | 96.7 | 42.5 | – | 14.2 | – | – | – | –
4 | O=C(c1ccc(Br)cc1)C(Cl)Cl | 73.4 | 23.5 | 37.8 | – | 67.7 | 48.8 | 16.2 | inactive | 96.1 | 13.3 | – | – | – | – | – | –
5 | O=C(c1cccc(Br)c1)C(Cl)Cl | 79.6 | 18.1 | 43.6 | – | 86.2 | 72 | 24.7 | – | 97.4 | 44.9 | – | 15.6 | – | – | – | –
6 | O=C(c1ccc(F)cc1F)C(Cl)Cl | 95.3 | 30.8 | 65.5 | – | 97.5 | 58.5 | 50.1 | – | 98.7 | 74.3 | – | 4.8 | – | – | – | –
7 | CC(C)c1ccc(C(=O)CCl)cc1[N+](=O)[O-] | 95.7 | 18.4 | 59.7 | – | 50.4 | 75.6 | 28.7 | inactive | 99 | 9 | – | – | – | – | – | –
8 | COc1cccc2c1C(=O)c1c(O)c3c(c(O)c1C2=O)C[C@@](O)(C(=O)CO)C[C@@H]3O[C@H]1C[C@H](N)[C@H](O)[C@H](C)O1 [DOXORUBICIN] | 99.6 | 60.5 | 86.9 | – | 90.6 | 98.9 | 86.7 | – | 98.6 | 72.4 | – | 52.3 | – | – | – | –
9 | O=C(c1ccccc1C(F)(F)F)C(Cl)Cl | 16.7 | 8.1 | 12.7 | inactive | 2.1 | 8.3 | 9 | – | 10.2 | – | – | 3 | inactive | – | – | –
10 | O=C(c1cccc(I)c1)C(Cl)Cl | 98.7 | 46.1 | 82 | – | 97.5 | 89.8 | 67 | – | 99.1 | 64 | – | 20.4 | – | – | – | –
11 | O=C(c1ccc(Cl)c(C(F)(F)F)c1)C(Cl)Cl | 100 | 55.7 | 95.3 | – | 97.6 | 94.5 | 79.5 | – | 98.4 | 70.1 | – | 27.6 | – | – | – | –
12 | O=C(c1cccc(Cl)c1)C(Cl)Cl | 99.1 | 24.9 | 76.3 | – | 95.9 | 82.8 | 53.1 | – | 98.4 | 37 | – | 14.2 | – | – | – | –
13 | O=C(c1ccccc1Br)C(Cl)Cl | 0.4 | – | – | inactive | 14.3 | 17.5 | 6.1 | – | 49.5 | – | inactive | 1.4 | inactive | inactive | – | –
14 | COc1ccc(C(=O)C(Cl)Cl)cc1 | 84.9 | 32.5 | 56.8 | 19.7 to 67.9% | 95.8 | 86.1 | 50.1 | – | 98.3 | 35.1 | – | 7.5 | – | – | – | –
15 | O=C(c1ccccc1Cl)C(Cl)Cl | 42.9 | 10.3 | 19.7 | inactive | 39 | 27.9 | 4.6 | inactive | 71 | 12.6 | – | – | – | – | – | –
16 | O=C(c1ccc(F)c([N+](=O)[O-])c1)C(Cl)Cl | 14.5 | – | – | – | 73.3 | 51.1 | 20.4 | – | 97.6 | 6.5 | inactive | 7 | – | inactive | – | –
17 | O=C(c1ccc(Cl)cc1Cl)C(Cl)Cl | 99.8 | 35.2 | 89 | – | 96.9 | 48.4 | 4.4 | – | 99 | 80.2 | – | 1.8 | – | – | – | –
18 | O=C(c1ccc(I)cc1)C(Cl)Cl | 99.6 | 29.3 | 65.6 | – | 91.4 | 74.4 | 52.3 | – | 96.8 | 33.8 | – | 9.3 | – | – | – | –
19 | O=C(c1ccc(Br)c([N+](=O)[O-])c1)C(Cl)Cl | 59.1 | – | – | – | 74.1 | 50.5 | 14.1 | – | 98.9 | 9.1 | inactive | 6.5 | – | inactive | – | –
20 | CC(C)c1ccc(C(=O)C(Cl)(Cl)Cl)cc1[N+](=O)[O-] | 22.6 | – | – | – | – | 12.5 | – | inactive | 31.2 | – | inactive | – | inactive | inactive | inactive | inactive
21 | O=C(c1cccc([N+](=O)[O-])c1)C(Cl)Cl | 99.9 | 25.5 | 82.1 | – | 98.5 | 85.9 | 44.2 | – | 99.9 | 62.2 | – | 13.4 | – | – | – | –
22 | O=C(c1ccc(F)cc1)C(Cl)Cl | 95.5 | 26.5 | 62.9 | – | 92.1 | 48.1 | 15.5 | – | 98.3 | 15.4 | – | 4.7 | – | – | – | –
23 | O=C(c1ccc([N+](=O)[O-])cc1)C(Cl)Cl | 99.9 | 35 | 98.5 | – | 99.6 | 97.6 | 70.5 | – | 99.4 | 77.8 | – | 24.5 | – | – | – | –
24 | CCc1cccc(C(=O)C(Cl)Cl)c1 | 98.7 | 23.7 | 64.1 | – | 85.9 | 63.2 | 25.7 | – | 96.9 | 28 | – | 22.6 | – | – | – | –
25 | N#Cc1ccc(C(=O)C(Cl)Cl)cc1 | 96.5 | 11.8 | 65.8 | – | 99.4 | 61.4 | 15.9 | – | 99.7 | 54.6 | – | 8.5 | – | – | – | –
26 | O=C(c1cccc(C(F)(F)F)c1)C(Cl)Cl | 97.5 | 24 | 65.9 | – | 96.6 | 77.9 | 28.4 | – | 97.8 | 45.8 | – | 11 | – | – | – | –
27 | O=C(c1ccc(C(F)(F)F)cc1)C(Cl)Cl | 75.5 | 25.8 | 49.7 | – | 91.6 | 85.9 | 37.1 | – | 98.2 | 47.8 | – | 18.6 | – | – | – | –
